This note sets out measurements from patent publication US8906925B2, “Pyrido[4,3-B]indoles containing rigid moieties” (Medivation Technologies, Inc., priority 2008, dated 2014).

Where two headings read alike, the source gives them in different places.

For test [1], the target named is histamine receptor H1 (Homo sapiens, UniProt P35367). The test is described as follows: Histamine H1 radioligand binding ([3H]Pyrilamine). The conditions noted are these: for inhibition at 1 µM: read-out: Histamine Binding (1 μM) H1, percent inhibition of specific binding, 1 μM. An outline of the steps:
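Values are percent inhibition of specific [3H]pyrilamine (1.2 nM) binding with compounds at ≤1 μM (1% DMSO vehicle); 180 min incubation at 25 °C, pH 7.4 Tris buffer, on CHO-expressed human H1 receptor; 1 μM pyrilamine defined nonspecific binding, bound ligand counted after filtration.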

Test [2] deals with T1, human recombinant adrenergic α2A receptor (Homo sapiens, UniProt P08913).
T1 construct: expressed in transfected cells; host or cells: insect Sf9 cells
T1 sequence (P08913 1-465): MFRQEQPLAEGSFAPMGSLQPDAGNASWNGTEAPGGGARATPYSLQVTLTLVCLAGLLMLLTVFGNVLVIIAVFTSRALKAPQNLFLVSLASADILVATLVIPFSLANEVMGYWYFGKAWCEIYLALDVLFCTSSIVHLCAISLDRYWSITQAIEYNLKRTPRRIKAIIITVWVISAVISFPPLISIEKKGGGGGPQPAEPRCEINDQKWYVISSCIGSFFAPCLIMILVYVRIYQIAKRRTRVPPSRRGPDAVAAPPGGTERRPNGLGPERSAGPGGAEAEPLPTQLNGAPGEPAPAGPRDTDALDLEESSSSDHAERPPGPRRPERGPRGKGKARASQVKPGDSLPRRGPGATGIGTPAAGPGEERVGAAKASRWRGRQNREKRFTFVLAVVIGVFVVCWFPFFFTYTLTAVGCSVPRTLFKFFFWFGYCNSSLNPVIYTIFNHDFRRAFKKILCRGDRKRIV
The experiment in a line: Adrenergic α2A radioligand binding ([3H]MK-912). The following applies: compound at 1 μM. An outline of the steps:
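Sf9-expressed human receptor in 50 mM Tris-HCl pH 7.4, 12.5 mM MgCl2, 2 mM EDTA; compounds at 1 μM or lower (1% DMSO) incubated with 1 nM [3H]MK-912 for 60 min at 25° C. Non-specific binding defined with 10 μM WB-4101; filtered bound radioactivity counted, reported as percent inhibition of specific binding.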

Test [3] addresses T2, human recombinant adrenergic α2B receptor (Homo sapiens, UniProt P18089).
T2 construct: expressed in transfected cells; host or cells: Chinese hamster ovary (CHO-K1) cells
T2 sequence (P18089 1-450): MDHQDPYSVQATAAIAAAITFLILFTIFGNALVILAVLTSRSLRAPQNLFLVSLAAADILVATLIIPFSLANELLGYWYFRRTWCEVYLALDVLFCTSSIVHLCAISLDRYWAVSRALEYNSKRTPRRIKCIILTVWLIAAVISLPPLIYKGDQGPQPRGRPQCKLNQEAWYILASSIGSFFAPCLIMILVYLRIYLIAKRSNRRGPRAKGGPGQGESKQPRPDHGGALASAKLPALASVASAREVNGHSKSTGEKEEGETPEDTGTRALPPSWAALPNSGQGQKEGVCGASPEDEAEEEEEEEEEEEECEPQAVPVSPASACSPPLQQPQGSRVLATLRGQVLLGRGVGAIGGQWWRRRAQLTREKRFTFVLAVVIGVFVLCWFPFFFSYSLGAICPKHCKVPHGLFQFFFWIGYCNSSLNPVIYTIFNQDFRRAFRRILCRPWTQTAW
The test is described as follows: Adrenergic α2B radioligand binding ([3H]Rauwolscine). The conditions noted are these: compound at 1 μM. In outline: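 Membranes from CHO-K1 cells expressing the receptor were incubated with 2.5 nM [3H]Rauwolscine for 60 min at 25 °C in Tris-HCl buffer pH 7.4 with MgCl2, EDTA and BSA. Non-specific binding was defined with 10 μM prazosin. Compounds were tested at ≤1 μM in 1% DMSO and read out as % inhibition of specific binding after filtration.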

The target in test [4] is T3, human recombinant serotonin (5-Hydroxytryptamine) 5-HT6 receptor (Homo sapiens, UniProt P50406).
T3 construct: expressed in transfected cells; host or cells: human HeLa cells
T3 sequence (P50406 whole entry): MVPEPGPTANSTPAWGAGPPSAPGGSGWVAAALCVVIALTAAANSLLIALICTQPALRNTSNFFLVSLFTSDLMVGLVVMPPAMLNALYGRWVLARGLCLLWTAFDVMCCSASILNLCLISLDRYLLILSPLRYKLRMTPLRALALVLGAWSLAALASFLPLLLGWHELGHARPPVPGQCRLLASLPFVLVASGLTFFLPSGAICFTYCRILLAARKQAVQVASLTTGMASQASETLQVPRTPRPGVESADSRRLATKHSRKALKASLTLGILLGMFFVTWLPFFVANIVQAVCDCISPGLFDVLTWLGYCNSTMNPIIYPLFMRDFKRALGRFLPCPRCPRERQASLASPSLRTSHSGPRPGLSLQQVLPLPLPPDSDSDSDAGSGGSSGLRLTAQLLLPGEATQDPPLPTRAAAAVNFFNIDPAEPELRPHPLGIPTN
The experiment in a line: Serotonin 5-HT6 radioligand binding ([3H]LSD). The conditions noted are these: for inhibition at 1 µM / inhibition at 0.1 µM: read-out: Inhibition of ligand binding, Serotonin 5-HT6 (percent inhibition of specific binding); for inhibition at 0.1 µM: compound at 0.1 μM. As to the method: Compounds of the invention were incubated with 1.5 nM [3H]Lysergic acid diethylamide (LSD) for 120 min. at 37° C. […] Receptor proteins were filtered and washed, the filters were then counted to determine [3H]LSD specifically bound. Compounds were screened at 1 μM or lower, using 1% DMSO as vehicle. Biochemical assay results are presented as the percent inhibition of specific binding in Table 10.

For test [5], the target named is human dopamine D2L receptor (Homo sapiens, UniProt P14416). The test is described as follows: Dopamine D2L radioligand binding ([3H]Spiperone). The conditions noted are these: compound at 1 μM; for Inhibition of ligand binding, Dopamine D2L: 1 µM. From the text:
Non-specific binding was estimated in the presence of […] Haloperidol. Receptor proteins were filtered and washed, the filters were then counted to determine [^3H]Spiperone specifically bound. […] Biochemical assay results are presented as the percent inhibition of specific binding in Table 9.

Where [6] appears, read: percent inhibition of specific binding, read-out: Inhibition of ligand binding, Adrenergic α2A.
Where [7] appears, read: percent inhibition of specific binding, read-out: Inhibition of ligand binding, Adrenergic α2B.
Where [8] appears, read: percent inhibition of specific binding.
Where [9] appears, read: percent inhibition of specific binding, read-out: Inhibition of ligand binding, Dopamine D2L.
The mark [10] stands for this setting: read-out: Inhibition of ligand binding, Adrenergic α2A (percent inhibition of specific binding).
[11] abbreviates: […] [3H]Rauwolscine, read-out: Inhibition of ligand binding, Adrenergic α2B (percent inhibition of specific binding).
The mark [12] stands for this setting: […] [3H]Spiperone, read-out: Inhibition of ligand binding, Dopamine D2L (percent inhibition of specific binding).

Sequence of histamine receptor H1 (P35367 whole entry): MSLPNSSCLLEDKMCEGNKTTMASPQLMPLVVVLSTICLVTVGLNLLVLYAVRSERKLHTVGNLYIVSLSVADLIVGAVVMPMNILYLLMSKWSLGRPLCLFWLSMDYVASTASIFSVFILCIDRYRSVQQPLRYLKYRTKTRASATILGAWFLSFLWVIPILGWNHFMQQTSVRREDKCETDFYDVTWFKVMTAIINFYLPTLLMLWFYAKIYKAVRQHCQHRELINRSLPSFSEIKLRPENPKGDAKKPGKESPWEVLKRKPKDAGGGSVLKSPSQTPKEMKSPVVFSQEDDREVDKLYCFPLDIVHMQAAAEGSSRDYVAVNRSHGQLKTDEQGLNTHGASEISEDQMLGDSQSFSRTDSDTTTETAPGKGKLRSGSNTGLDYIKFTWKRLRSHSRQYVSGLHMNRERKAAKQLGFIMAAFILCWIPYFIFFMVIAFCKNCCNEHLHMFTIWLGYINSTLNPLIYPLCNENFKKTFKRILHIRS
Sequence of human dopamine D2L receptor (P14416 whole entry): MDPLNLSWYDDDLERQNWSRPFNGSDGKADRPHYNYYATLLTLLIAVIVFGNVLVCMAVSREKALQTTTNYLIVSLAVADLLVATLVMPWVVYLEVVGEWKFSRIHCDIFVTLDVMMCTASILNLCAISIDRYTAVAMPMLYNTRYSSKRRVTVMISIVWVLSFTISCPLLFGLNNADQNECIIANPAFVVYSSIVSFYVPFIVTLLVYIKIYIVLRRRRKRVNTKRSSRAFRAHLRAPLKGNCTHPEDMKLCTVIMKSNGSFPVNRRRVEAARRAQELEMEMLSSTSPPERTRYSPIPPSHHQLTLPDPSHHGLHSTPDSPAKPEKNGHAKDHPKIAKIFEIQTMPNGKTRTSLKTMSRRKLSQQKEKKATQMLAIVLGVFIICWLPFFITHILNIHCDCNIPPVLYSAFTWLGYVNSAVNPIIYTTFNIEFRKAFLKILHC

Turning to `CCOC(=O)/C=C(/Cn1c2c(c3cc(C)ccc31)CN(C)CC2)c1ccccc1` [Compound No. 347, (E)-ethyl 4-(2,8-dimethyl-3,4-dihydro-1H-pyrido[4,3-b]indol-5(2H)-yl)-3-phenylbut-2-enoate], in test [1], the “Histamine Binding (1 μM) H1, percent inhibition of specific binding” value is given as 56%. Moreover, the inhibition at 1 µM in test [1] was 42%; in test [2] (setting [6]), 96%; in test [3] (setting [7]), 111%; in test [4] (compound at 1 μM) it was 101%; in test [5] (setting [9]), 27%. Besides, the “Inhibition of ligand binding, Dopamine D2L” value in test [5] (setting [8]) came out at 30%.

On to `C=C(Cn1c2c(c3cc(Cl)ccc31)CN(C)CC2)c1ccc(F)cc1` [Compound 128, 8-chloro-5-(2-(4-fluorophenyl)allyl)-2,3,4,5-tetrahydro-2-methyl-1H-pyrido[4,3-b]indole], for which the inhibition at 1 µM in test [1] worked out at 98%; in test [2] (setting [6]), 99%; in test [3] (setting [7]), 120%; in test [4] (compound at 1 μM) it was 101%; in test [5] (setting [9]), 97%. Further, the inhibition at 0.1 µM in test [4] was 94%.

For the molecule `COc1ccc(C(C)(O)Cn2c3c(c4cc(Cl)ccc42)CN(C)CC3)cc1` (stereo not shown) [Compound 57, 1-(8-chloro-1,2,3,4-tetrahydro-2-methylpyrido[4,3-b]indol-5-yl)-2-(4-methoxyphenyl)propan-2-ol], the inhibition at 1 µM in test [1] worked out at 41%; in test [2] (setting [6]), 70%; in test [3] (setting [7]), 108%; in test [4] (compound at 1 μM) it was 68%; in test [5] (setting [9]), 22%.

For `Cc1ccc2c(c1)c1c(n2CC(O)c2ccncc2)CCN(C)C1` (stereo not shown) [Compound 180, 2-(2,8-dimethyl-3,4-dihydro-1H-pyrido[4,3-b]indol-5(2H)-yl)-1-(pyridin-4-yl)ethanol], the inhibition at 1 µM worked out at 84% in test [1]; 84% in test [2] (setting [6]); 105% in test [3] (setting [7]); 72% in test [4] (compound at 1 μM); 10% in test [5] (setting [9]).

Turning to `C/C(=C\n1c2c(c3cc(C)ccc31)CN(C)CC2)c1ccc(F)cc1` [Compound 87, (E)-5-(2-(4-fluorophenyl)prop-1-enyl)-2,3,4,5-tetrahydro-2,8-dimethyl-1H-pyrido[4,3-b]indole], the “Histamine Binding (1 μM) H1, percent inhibition of specific binding” value in test [1] is reported as 81%. Further, the inhibition at 1 µM was found to be 65% in test [1]; 95% in test [2] (setting [6]); 121% in test [3] (setting [7]); 101% in test [4] (compound at 1 μM); 97% in test [5] (setting [9]). Further, the inhibition at 0.1 µM in test [4] is 97%.

With `CN1CCc2c(c3cc(Cl)ccc3n2C2=C(c3cccnc3)CCCC2)C1` [Compound No. 166, 8-chloro-2-methyl-5-(2-(pyridin-3-yl)cyclohex-1-enyl)-2,3,4,5-tetrahydro-1H-pyrido[4,3-b]indole], the inhibition at 1 µM was 14% in test [1]; 44% in test [2] (setting [6]); 63% in test [3] (setting [7]); 6% in test [4] (compound at 1 μM); -2% in test [5] (setting [9]).

On to `CCC/C=C(/Cn1c2c(c3cc(Cl)ccc31)CN(C)CC2)c1ccc(F)cc1` [Compound No. 351, (E)-8-chloro-5-(2-(4-fluorophenyl)hex-2-enyl)-2-methyl-2,3,4,5-tetrahydro-1H-pyrido[4,3-b]indole], for which, in test [1], the “Histamine Binding (1 μM) H1, percent inhibition of specific binding” value was 80%. The inhibition at 1 µM in test [1] turned out to be 78%; in test [2] (setting [10]), 84%; in test [3] (setting [11]) it was 99%; in test [4] (compound at 1 μM) it was 103%; in test [5] (setting [12]), 70%. For the same molecule, in test [5] ([…] [3H]Spiperone), the “Inhibition of ligand binding, Dopamine D2L (percent inhibition of specific binding)” value came to 80%.

As for `C=C(Cn1c2c(c3cc(Cl)ccc31)CN(C)CC2)c1ccc(OC)c(F)c1` [Compound 140, 8-chloro-5-(2-(3-fluoro-4-methoxyphenyl)allyl)-2,3,4,5-tetrahydro-2-methyl-1H-pyrido[4,3-b]indole], the inhibition at 1 µM in test [1] was 98%; in test [2] (setting [6]), 86%; in test [3] (setting [7]), 106%; in test [4] (compound at 1 μM), 75%; in test [5] (setting [9]) it was 57%.

With `Cc1ccc2c(c1)c1c(n2C/C(=C/C(=O)O)c2ccc(F)cc2)CCN(C)C1` [Compound No. 352, (E)-4-(2,8-dimethyl-3,4-dihydro-1H-pyrido[4,3-b]indol-5(2H)-yl)-3-(4-fluorophenyl)but-2-enoic acid], the inhibition at 1 µM in test [1] turned out to be 4%; in test [2] (setting [10]) it was 34%; in test [3] (setting [11]), 47%; in test [4] (compound at 1 μM), 32%; in test [5] (setting [12]), 0%.

Consider `CN1CCc2c(c3cc(Cl)ccc3n2C/C(=C/CCO)c2ccc(F)cc2)C1` [Compound No. 349, (E)-5-(8-chloro-2-methyl-3,4-dihydro-1H-pyrido[4,3-b]indol-5(2H)-yl)-4-(4-fluorophenyl)pent-3-en-1-ol], for which the “Histamine Binding (1 μM) H1, percent inhibition of specific binding” value in test [1] is 65%. For the same molecule, the inhibition at 1 µM in test [1] turned out to be 53%; in test [2] (setting [6]), 97%; in test [3] (setting [7]), 102%; in test [4] (compound at 1 μM) it was 102%; in test [5] (setting [9]), 34%. Moreover, the “Inhibition of ligand binding, Serotonin 5-HT6 (percent inhibition of specific binding)” value in test [4] (compound at 1 μM, 1 µM) is 103%. Further, in test [5] (setting [8]), the “Inhibition of ligand binding, Dopamine D2L” value came out at 46%.

As for `CCCCC(O)(Cn1c2c(c3cc(Cl)ccc31)CN(C)CC2)c1ccc(F)cc1` (stereo not shown) [Compound 178, 1-(8-chloro-2-methyl-3,4-dihydro-1H-pyrido[4,3-b]indol-5(2H)-yl)-2-(4-fluorophenyl)hexan-2-ol], the inhibition at 1 µM in test [1] came out at 30%; in test [2] (setting [6]), 88%; in test [3] (setting [7]) it was 79%; in test [4] (compound at 1 μM), 95%; in test [5] (setting [9]), 30%.

In the case of `Cc1ccc2c(c1)c1c(n2CC(O)(c2ccccc2)c2ccc(F)cc2)CCN(C)C1` (stereo not shown) [Compound No. 176, 2-(2,8-dimethyl-3,4-dihydro-1H-pyrido[4,3-b]indol-5(2H)-yl)-1-(4-fluorophenyl)-1-phenylethanol], the inhibition at 1 µM worked out at 21% in test [1]; 94% in test [2] (setting [6]); 95% in test [3] (setting [7]); 82% in test [4] (compound at 1 μM); 6% in test [5] (setting [9]).

What is called inhibition is the drop in the measured response relative to a control, in per cent.
